These results are taken from ChEMBL document CHEMBL5370550, “Structure-guided optimization of adenosine mimetics as selective and potent inhibitors of coronavirus nsp14 N7-methyltransferases” (Eur J Med Chem, 2023).

Active and inactive are the calls of the source. The rule behind the calls is not given here.

The target of series [1] is Replicase polyprotein 1ab (Severe acute respiratory syndrome-related coronavirus) (UniProt P0C6X7). The following applies: dose 5.0 µM, time 30.0 min.
Series [2] addresses Replicase polyprotein 1ab (Severe acute respiratory syndrome coronavirus 2) (UniProt P0DTD1). The following applies: dose 5.0 µM, time 30.0 min, values are per cent of control.
For series [3], the target named is T1, mRNA cap guanine-N(7) methyltransferase (Homo sapiens, UniProt O43148). The following applies: dose 5.0 µM, time 30.0 min.
Series [4] addresses Replicase polyprotein 1ab (Severe acute respiratory syndrome coronavirus 2, UniProt P0DTD1).
The target of series [5] is Replicase polyprotein 1ab (Severe acute respiratory syndrome-related coronavirus, UniProt P0C6X7).
The target of series [6] is T1, mRNA cap guanine-N(7) methyltransferase.
A further series concerns the target Nonstructural protein 5 (Dengue virus, UniProt V5TFZ2). Details: species or system dengue virus type 3.
The test system of series [7] is Severe acute respiratory syndrome coronavirus 2. The following applies: time 30.0 min.
Series [8] can be described thus: Cytotoxicity against Green monkey VeroE6/TMPRSS2 cells assessed as reduction in cell viability upto 10 uM by CellTiter Blue assay. The series is classed as toxicity, cell-based. The following applies: chlorocebus sabaeus, veroe6/tmprss2, 10 µM. A general note: Resazurin is reduced to fluorescent resorufin, in cell work by metabolically active cells.
The test system of a further series is SARS-CoV-2. The experiment in a line: Antiviral activity against SARS-CoV-2 B.1 infected in Green monkey VeroE6/TMPRSS2 cells assessed as viral replication inhibition at 10 uM incubated for 2 days by qRT-PCR analysis relative to control. The series is classed as functional. (In general: In qPCR the cycle at which signal appears reflects the starting amount.)

T1 sequence (O43148 whole entry): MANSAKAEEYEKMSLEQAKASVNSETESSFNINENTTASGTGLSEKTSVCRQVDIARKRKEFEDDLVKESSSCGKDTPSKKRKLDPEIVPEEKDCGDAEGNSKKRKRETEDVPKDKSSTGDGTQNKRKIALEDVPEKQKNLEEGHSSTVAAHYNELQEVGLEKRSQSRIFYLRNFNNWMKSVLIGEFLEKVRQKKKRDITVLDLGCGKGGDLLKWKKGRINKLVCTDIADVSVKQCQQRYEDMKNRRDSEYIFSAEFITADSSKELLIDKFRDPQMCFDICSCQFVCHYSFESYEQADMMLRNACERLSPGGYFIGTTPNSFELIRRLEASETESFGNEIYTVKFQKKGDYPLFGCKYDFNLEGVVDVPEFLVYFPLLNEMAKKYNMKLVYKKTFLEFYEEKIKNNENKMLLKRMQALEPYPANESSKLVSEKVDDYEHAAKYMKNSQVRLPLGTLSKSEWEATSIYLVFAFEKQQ

In series [1], `COc1ccc(S(=O)(=O)N(C)C[C@H]2O[C@@H](n3cc(C#Cc4ccccc4)c4c(N)ncnc43)[C@H](O)[C@@H]2O)cc1C#N` registered an inhibition of 1%. Moreover, in series [2], the residual activity came to 2.4%. For the same molecule, the inhibition result in [3] and in series [7] was “inactive” in each case. The IC50 in [4] was 1.2 nM; in series [5], 0.8 nM; in series [6], 56500 nM; at Nonstructural protein 5, “Not Active”. Moreover, in [8], the Activity result is listed as “Non-Toxic”. Further, in the series with SARS-CoV-2 (Severe acute respiratory syndrome coronavirus 2, time 2.0 day), the result was inactive.

With `COc1ccc(S(=O)(=O)N(C)C[C@H]2O[C@@H](n3cc(C#Cc4cnc5ccccc5c4)c4c(N)ncnc43)[C@H](O)[C@@H]2O)cc1C#N`, the inhibition in series [1] was determined as 1.4%; in series [3], 53%. For the same molecule, the residual activity in series [2] came to 0%. Moreover, the IC50 in series [4] was 0.72 nM; in series [5] it was 0.141 nM; in [6], 165000 nM; against Nonstructural protein 5, “Not Active”. Besides, the inhibition entry in series [7] was “inactive”. For the same molecule, the Activity result in series [8] is “Non-Toxic”; in the series on SARS-CoV-2 (time 2 day), 50%.

Broadly, the inhibition is the relative decrease from the control value, in per cent. Broadly, the residual activity is the share of the control activity or signal that is left under treatment. The IC50 is the concentration that gives 50% inhibition.
